Legend:
[1] = target: Bcl-2 (B-cell lymphoma 2) (Homo sapiens, UniProt P10415); experiment: intrinsic tryptophan fluorescence quenching; assay type: binding
[2] = target: B-cell lymphoma 2 (Bcl-2) (UniProt P10415); experiment: fluorescence polarisation
B-cell lymphoma 2 (Bcl-2), sequence (P10415 whole entry): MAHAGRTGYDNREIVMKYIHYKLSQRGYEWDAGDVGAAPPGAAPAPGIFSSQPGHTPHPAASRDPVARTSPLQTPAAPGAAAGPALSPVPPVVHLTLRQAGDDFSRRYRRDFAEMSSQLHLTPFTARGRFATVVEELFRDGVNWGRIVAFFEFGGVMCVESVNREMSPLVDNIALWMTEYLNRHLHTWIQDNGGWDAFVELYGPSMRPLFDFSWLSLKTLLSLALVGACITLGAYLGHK

Bcl-2 (B-cell lymphoma 2), sequence (P10415 whole entry): as above

Kd [1] [µM]	Kd [2] [µM]	Molecule
380 ± 80	–	CC(C)(COP(=O)(O)OP(=O)(O)OC[C@H]1O[C@@H](n2cnc3c(N)ncnc32)[C@H](O)[C@@H]1OP(=O)(O)O)[C@@H](O)C(=O)NCCC(=O)NCCS [CoA]
–	0.128	fluorescent-labeled Bax-BH3 peptide

— publication PMC4673972 (Bioinformatics, 2015)
